Measurements as given in patent US8846653B2, “Delta-tocotrienol treatment and prevention of pancreatic cancer” (University of South Florida, priority 2006, dated 2014).

Assays:
[1] = test system: MIA PaCa2 cells; assay: TUNEL staining; format: cell-based, human; conditions: MIA PaCa2, 20 μM, 24 hours, vs vehicle or treated HPDE 6C7
Procedure: (§1) In addition to its chemopreventive effects, δ-Tocotrienol induces apoptosis in pancreatic cancer. MIA PaCa2 cells were treated with either δ-tocotrienol or vehicle for 24 hours. Cells were collected and stained with annexin V-FITC and analyzed by flow cytometry for apoptosis. […] MIA PaCa2 cells and HPDE 6C7 cells were treated with vehicle or δ-tocotrienol (20 μM) for 24 hours, then harvested and stained for TUNEL. […] Cell lysates were prepared from MIA PaCa2 cells treated with 8-tocotrienol (20 μM) at progressive time intervals and proteins from lysates were run by SDS PAGE and immunoblotted for biomarkers of apoptosis.

[2] = test system: SW 1990 cells; assay: Cell cycle phase by propidium iodide flow cytometry; format: cell-based, human; conditions: SW 1990, 20 μM, 24 hours
Procedure: (§2) MIA PaCa2, SW 1990, BXPC3 and HPDE 6C7 cells were treated with either 8-tocotrienol 20 μM or vehicle for 24 hours. Cells were harvested, washed twice in PBS, and fixed in ethanol overnight. Pellets were washed the following day in PBS, stained with propidium iodide, and analyzed by flow cytometry for cell cycle phase. […] Important regulators of the G1 cell cycle phase include members of the cyclin kinase inhibitor family. One of these members, p27^kip1, appears to be important in the progression of pancreatic cancer.

[3] = test system: MIA PaCa2 cells; assay: as above; format: cell-based, human; conditions: MIA PaCa2, 20 μM, 24 hours
Procedure: as §2

[4] = test system: SW1990 cells; assay: Proliferation by MTT, increasing concentrations of δ-tocotrienol; format: cell-based, human; conditions: SW1990, at 24 hours; read-out: IC50 (inhibition of proliferation, MTT)
Procedure: (§3) FIG. 23 is a graph wherein SW1990 pancreatic cancer cells (3×10^3) were plated in 96 well plates and treated the following day with δ-tocotrienol. Proliferation was assessed by MTT at 24 hour intervals. […] HPDE 6C7 cells were also treated with increasing concentrations of 8-tocotrienol for 24 hours.
(§4) MIA PaCa2, SW1990, BXPC3, and HPDE 6C7 cells (3×10^3) were cultured as described in the Examples above, in 96-well plates and treated the following day with increasing concentrations of δ-tocotrienol.

[5] = test system: MIA PaCa2 cells; assay: as above; format: cell-based, human; conditions: MIA PaCa2, at 24 hours; read-out: IC50 (inhibition of proliferation, MTT)
Procedure: as §3, with “22” for “23”, “MIA PaCa2” for “SW1990”, “δ-tocotrienol” for “8-tocotrienol”
as §4

[6] = test system: p-AKT; assay: Immunoblot for p-AKT and AKT; format: cell-based, human; conditions: MIA PaCa2 and SW1990, 20 μM, 24 and 48 hours
Procedure: The Ras effector pathways Raf-MEK-ERK and PI3 kinase-AKT are important for cell proliferation and survival, respectively. Pancreatic cancer cell lines (MIA PaCa2, SW1990, BXPC3) and HPDE 6C7 cells were treated with 8-tocotrienol (20 μM) and cell lysates were collected and prepared at progressive time intervals as described above. Proteins from lysates were run by SDS PAGE and immunoblotted with the following antibodies: Ras, p-cRaf (ser 338), p-MEK1/2, MEK1/2, pERK 44/42, ERK 44/42 (Cell Signaling) and c-Raf (BD Transduction Laboratories). […] The MIA PaCa2 and SW1990 cells were then tested for AKT inhibition. The cells were treated with δ-tocotrienol (20 μM) for 24 and 48 hours and cell lysates were run by SDS-PAGE and immunoblotted for p-AKT and AKT (Cell Signaling). […] Taken together, the inhibition of downstream effectors of oncogenic Ras signaling by δ-tocotrienol without an effect on Ras protein levels may indicate a negative regulatory role of 8-tocotrienol on the function of oncogenic Ras. The pancreatic ductal epithelial cell proliferative inhibition by δ-tocotrienol was tested to see if it occurs through blocking aberrant signal transduction cascades. […]

[7] = test system: MIA PaCa2 xenografts; assay: MIA PaCa2 luciferase xenograft tumor growth in nude mice; format: in vivo; conditions: 100 mg/kg/day by gavage
Procedure: (§5) Rate of growth by day 10 of treatment is less in the tocotrienol treatment group. Stable transfectants of MIA PaCa2 cells with luciferase were injected subcutaneously into nude mice. Tumor volumes were measured every 2 days with calibers and the rate of growth was determined weekly by measuring tumor luminescence using the IVIS 100 Xenogen system. Tumors of similar volume (100-150 mm^3) and rate of growth based on luminescence were randomized to receive either vehicle or δ-tocotrienol (100 mg/kg/day) by gavage for 20 days.
as §5, with “Stable” for “Rate of growth by day 10 of treatment is less in the tocotrienol treatment group. Stable”, “mice. Mice were treated with either rice bran oil (vehicle) or δ-tocotrienol (100 mg/kg/day) via gavage five times per week.” for “mice.”

[8] = Plasma and mouse tissue levels by HPLC-UV; format: in vivo
Excerpt: FIG. 52 is a graph showing tissue levels of delta-tocotrienol. *p=0.0044; # p=0.0034; † p=0.0181.

[9] = test system: MIA PaCa2 cells; assay: MTT cell viability, δ-tocotrienol, fluorouracil or combination; format: cell-based, human
Procedure: FIG. 39 is a graph MIA PaCa2 pancreatic cancer cells (3×10^3) treated with indicated concentrations of delta-tocotrienol, fluorouracil (5FU), or a combination of the indicated delta-tocotrienol and 5FU.
The MiaPaCa 2 cells were plated as above into 96 well plates and treated the following day with increasing concentrations of δ-tocotrienol, fluorouracil (5FU), or a combination of δ-tocotrienol and fluorouracil. The cells were collected and analyzed for cell viability using an MTT assay. […] MIA PaCa2 cells (3×10^3) were cultured as described in the Examples above, in 96-well plates and treated the following day with vehicle, δ-tocotrienol, fluorouracil, or a combination of δ-tocotrienol and fluorouracil.

[10] = test system: Caspase 8, Caspase 3, PARP, cytochrome C, caspase 9; assay: Immunoblot for biomarkers of apoptosis (caspase cascade); format: cell-based, human; conditions: MIA PaCa2, 20 μM
Procedure: An aliquot of the cells were collected and cells lysed. The lysate was then run on a Western blot and cleavage of caspase 8, caspase 3, and PARP detected.
as §1

Compound: CC(C)=CCC/C(C)=C/CC/C(C)=C/CC[C@]1(C)CCc2cc(O)cc(C)c2O1 [T3 delta, delta tocotrienol]
- TUNEL staining [1]: significant staining for TUNEL
- cell cycle phase [2]: significant G1 cell cycle arrest
- cell cycle phase [3]: significant G1 cell cycle arrest
- IC50 [4]: 20 to 25 µM
- IC50 [5]: 20 to 25 µM
- p-AKT protein levels [6]: decrease in p-AKT protein levels
- rate of growth by tumor luminescence ([7]; day 10 of treatment): significantly less
- reduction in tumor growth ([7]; nude mice, vs vehicle): 50%
- plasma level ([8]; mouse plasma): detectable in plasma
- localization in the pancreas compared to liver and pancreatic tumor levels (factor) ([8]; mouse tissue): 10
- concentration at which the effect became significant vs vehicle [9]: 50 µM
- IC50 ([9]; at 24 hours): 50 µM
- mitochondrial pro-apoptotic proteins (cytochrome C release, cleavage of caspase 9) [10]: no significant effect
- caspase cascade: cleavage of caspase 8, caspase 3, PARP ([10]; time dependent): activation of the caspase cascade
